Assay results: patent US9896421B2, “Compound having skin-whitening, anti-oxidizing and PPAR activities and medical use thereof” (Pusan National University Industry-University Cooperation …, priority 2011, dated 2018)

Tested on: Mushroom-derived tyrosinase
Assay: Tyrosinase inhibitory effect
Assay type: biochemical
Settings: 1 mM L-tyrosin, pH 6.5, 25° C., 30 minutes, OD492; compared with kojic acid (positive control); FIGS. 4 to 6
Method: Mushroom-derived tyrosinase was sued as an enzyme source in the present experiment. Tyrosinase activities were assayed according to a slightly-modified conventionally known method (Life Sci., 1999, 65, 241-246). In detail, 20 μl of a mushroom-derived tyrosinase (1000 units) aqueous solution was added to 96-well microplate (Nunc, Denmark) to prepare 200 μl of the total volume of assay mixture containing 1 mM L-tyrosin solution and 50 mM phosphate buffer solution (pH 6.5). The assay mixture was cultured at a temperature of 25° C. for 30 minutes. After the culturing, an amount of the produced DOPA chrome in the reaction mixture was measured by using a microplate reader (Hewlett Packard) at 492 nm (OD492).

Row | Structure (SMILES) | tyrosinase inhibitory activities
1 | O=C1NC(=O)/C(=C/c2ccc(O)cc2)S1 [Compound 1, (Z)-5-(4-hydroxybenzylidene)thiazolidine-2,4-dione] | better tyrosinase inhibitory activities than a kojic acid
2 | [H]/N=C1/NC(=O)C(=Cc2ccc(OC)c(O)c2)S1 [Compound 115, (Z)-5-(3-hydroxy-4-methoxybenzylidene)-2-iminothiazolidin-4-one] | better tyrosinase inhibitory activities than a kojic acid
3 | O=C1NC(=O)C(=Cc2ccc(OCc3ccccc3)cc2)C(=O)N1 [Compound 123, 5-(4-(benzyloxy)benzylidene)pyrimidine-2,4,6(1H,3H,5H)-trione] | better tyrosinase inhibitory activities than a kojic acid

Tested on: not given
Assay: not given
Settings: not given

Row | Structure (SMILES) | melting point
4 | [H]/N=C1/NC(=O)C(=Cc2cc(OC)c(O)c(OC)c2)S1 [Compound 122, (Z)-5-(4-hydroxy-3,5-dimethoxybenzylidene)-2-iminothiazolidin-4-one] | 254.3 to 256.6 °C
5 | CCOc1cc(C=C2C(=O)NC(=O)NC2=O)ccc1O | 244.7 to 246.1 °C
6 | O=C1NC(=S)NC(=O)C1=Cc1ccccc1O | 250.6 to 251.4 °C
7 | COc1ccc(/C=C2\CC(=O)NC2=O)cc1 [Compound 42, (E)-3-(4-methoxybenzylidene)pyrrolidine-2,5-dione] | 243.4 to 245.7 °C
8 | [H]/N=C1/NC(=O)C(=Cc2ccc(OC)cc2OC)N1C [Compound 81, (Z)-5-(2,4-dimethoxybenzylidene)-2-imino-1-methylimidazolidin-4-one] | 244.6 to 245.6 °C
9 | [H]/N=C1/NC(=O)C(=Cc2cc(O)cc(O)c2)S1 [Compound 118, (Z)-5-(3,5-dihydroxybenzylidene)-2-iminothiazolidin-4-one] | > 300 °C
10 | O=C1NC(=O)/C(=C/c2cc(O)cc(O)c2)S1 [Compound 9, (Z)-5-(3,5-dihydroxybenzylidene)thiazolidine-2,4-dione] | 288.4 to 290.2 °C
11 | COc1ccc(C=C2C(=O)NC(=O)NC2=O)c(OC)c1 | 291.1 to 291.7 °C
12 | COc1ccc(/C=C2\NC(=S)NC2=O)c(OC)c1 [Compound 107, (Z)-5-(2,4-dimethoxybenzylidene)-2-thioxoimidazolidin-4-one] | 237.1 to 238.6 °C
13 | O=C1NC(=O)/C(=C/c2ccc(O)cc2)N1 [Compound 25, (Z)-5-(4-hydroxybenzylidene)imidazolidine-2,4-dione] | > 300 °C
14 | O=C1NC(=S)NC(=O)C1=Cc1ccc(O)cc1O | > 300 °C
15 | COc1ccc(C=C2C(=O)NC(=S)NC2=O)c(OC)c1 | 294.1 to 295.4 °C
16 | CCOc1cc(/C=C2\CC(=O)NC2=O)ccc1O [Compound 40, (E)-3-(3-ethoxy-4-hydroxybenzylidene)pyrrolidine-2,5-dione] | 222.3 to 224.1 °C
17 | [H]/N=C1/NC(=O)C(=Cc2ccccc2O)S1 [Compound 120, (Z)-5-(2-hydroxybenzylidene)-2-iminothiazolidin-4-one] | 210.1 to 211.5 °C
18 | [H]/N=C1/NC(=O)C(=Cc2ccc(OC)c(OC)c2)N1C [Compound 80, (Z)-5-(3,4-dimethoxybenzylidene)-2-imino-1-methylimidazolidin-4-one] | 257.1 to 259 °C
19 | COc1ccc(/C=C2\NC(=S)NC2=O)cc1 [Compound 104, (Z)-5-(4-methoxybenzylidene)-2-thioxoimidazolidin-4-one] | 266.9 to 267.5 °C
20 | CCOc1cc(/C=C2\NC(=O)NC2=O)ccc1O [Compound 28, (Z)-5-(3-ethoxy-4-hydroxybenzylidene)imidazolidine-2,4-dione] | 253 to 255.4 °C
21 | COc1cc(/C=C2\NC(=S)NC2=O)cc(OC)c1OC [Compound 109, (Z)-2-thioxo-5-(3,4,5-trimethoxybenzylidene)imidazolidin-4-one] | 264 to 266.6 °C
22 | COc1ccc(C=C2C(=O)NC(=O)NC2=O)cc1OC | > 300 °C
23 | COc1cc(/C=C2\SC(=N)NC2=O)cc(OC)c1OC [Compound 121, (Z)-2-Imino-5-(3,4,5-trimethoxybenzylidene)thiazolidin-4-one] | 253.3 to 254.8 °C
24 | COc1ccc(/C=C2\CC(=O)NC2=O)c(OC)c1 [Compound 45, (E)-3-(2,4-dimethoxybenzylidene)pyrrolidine-2,5-dione] | 245.7 to 246.6 °C
25 | COc1ccc(C=C2C(=O)NC(=O)NC2=O)cc1O | 279.3 to 281.4 °C
26 | COc1cc(C=C2C(=O)NC(=O)NC2=O)cc(OC)c1OC | 274.8 to 275.4 °C
27 | COc1cc(/C=C2\CC(=O)NC2=O)ccc1O [Compound 39, (E)-3-(4-hydroxy-3-methoxybenzylidene)pyrrolidine-2,5-dione] | 243.5 to 245.7 °C
28 | COc1cc(/C=C2\SC(=O)NC2=O)cc(OC)c1OC [Compound 12, (Z)-5-(3,4,5-trimethoxybenzylidene)thiazolidine-2,4-dione] | 179.1 to 181 °C
29 | [H]/N=C1/NC(=O)C(=Cc2ccc(O)c(OC)c2)N1C [Compound 76, (Z)-5-(4-hydroxy-3-methoxybenzylidene)-2-imino-1-methylimidazolidin-4-one] | 254.2 to 255.6 °C

Row | Structure (SMILES) | melting point
30 | [H]/N=C1/NC(=O)C(=Cc2ccc(OC)c(OC)c2)S1 [Compound 117, (Z)-5-(3,4-dimethoxybenzylidene)-2-iminothiazolidin-4-one] | 274.2 to 276.3 °C
31 | COc1ccc(/C=C2\SC(=O)NC2=O)c(OC)c1 [Compound 10, (Z)-5-(2,4-dimethoxybenzylidene)thiazolidine-2,4-dione] | 254.7 to 255.6 °C
32 | COc1cc(/C=C2\CC(=O)NC2=O)cc(OC)c1O [Compound 48, (E)-3-(4-hydroxy-3,5-dimethoxybenzylidene)pyrrolidine-2,5-dione] | 236.7 to 237.7 °C
33 | [H]/N=C1/NC(=O)C(=Cc2ccc(OC)c(O)c2)N1C [Compound 78, (Z)-5-(3-hydroxy-4-methoxybenzylidene)-2-imino-1-methylimidazolidin-4-one] | 276.1 to 277.3 °C
34 | CCOc1cc(C=C2C(=O)NC(=S)NC2=O)ccc1O | 285 to 287.3 °C
35 | COc1ccc(/C=C2/C(=O)NC(=N)N2C)cc1 [Compound 79, (Z)-2-Imino-5-(4-methoxybenzylidene)-1-methylimidazolidin-4-one] | 252.1 to 255 °C
36 | COc1cc(C=C2C(=O)NC(=S)NC2=O)cc(OC)c1O | > 300 °C
37 | O=C1C/C(=C\c2cc(O)cc(O)c2)C(=O)N1 [Compound 44, (E)-3-(3,5-dihydroxybenzylidene)pyrrolidine-2,5-dione] | 275.2 to 277.8 °C
38 | O=C1NC(=O)/C(=C/c2ccccc2O)N1 [Compound 33, (Z)-5-(2-hydroxybenzylidene)imidazolidine-2,4-dione] | 265.5 to 268.4 °C
39 | COc1ccc(C=C2C(=O)NC(=S)NC2=O)cc1OC | 269.9 to 271.7 °C
40 | COc1ccc(C=C2C(=O)NC(=S)NC2=O)cc1O | 278.9 to 280.5 °C
41 | O=C1C/C(=C\c2ccccc2O)C(=O)N1 [Compound 46, (E)-3-(2-hydroxybenzylidene)pyrrolidine-2,5-dione] | 271.3 to 272.1 °C
42 | COc1cc(C=C2C(=O)NC(=S)NC2=O)ccc1O | 260.9 to 263.6 °C
43 | [H]/N=C1/NC(=O)C(=Cc2ccc(OC)cc2OC)S1 [Compound 119, (Z)-5-(2,4-dimethoxybenzylidene)-2-iminothiazolidin-4-one] | 249.1 to 250.7 °C
44 | COc1ccc(/C=C2\CC(=O)NC2=O)cc1OC [Compound 43, (E)-3-(3,4-dimethoxybenzylidene)pyrrolidine-2,5-dione] | 237.1 to 238.4 °C
45 | [H]/N=C1/NC(=O)C(=Cc2ccc(O)c(OCC)c2)N1C [Compound 77, (Z)-5-(3-ethoxy-4-hydroxybenzylidene)-2-imino-1-methylimidazolidin-4-one] | 254.2 to 255.6 °C
46 | COc1cc(/C=C2\CC(=O)NC2=O)cc(OC)c1OC [Compound 47, (E)-3-(3,4,5-trimethoxybenzylidene)pyrrolidine-2,5-dione] | 191.2 to 193.6 °C
47 | COc1ccc(/C=C2\SC(=S)NC2=O)c(OC)c1 [Compound 70, (Z)-5-(2,4-dimethoxybenzylidene)-2-thioxothiazolidin-4-one] | 272.7 to 275.2 °C
48 | COc1ccc(/C=C2\NC(=O)NC2=O)c(OC)c1 [Compound 32, (Z)-5-(2,4-dimethoxybenzylidene)imidazolidine-2,4-dione] | 234.1 to 237.2 °C
49 | [H]/N=C1/NC(=O)C(=Cc2ccc(O)c(O)c2)S1 [Compound 112, (Z)-5-(3,4-dihydroxybenzylidene)-2-iminothiazolidin-4-one] | > 300 °C
50 | COc1cc(/C=C2\NC(=O)NC2=O)cc(OC)c1OC [Compound 34, (Z)-5-(3,4,5-trimethoxybenzylidene)imidazolidine-2,4-dione] | 266.3 to 267.2 °C
51 | [H]/N=C1/NC(=O)C(=Cc2ccc(O)cc2)N1C [Compound 74, (Z)-5-(4-hydroxybenzylidene)-2-imino-1-methylimidazolidin-4-one] | 285.9 to 288 °C
52 | COc1cc(C=C2C(=O)NC(=S)NC2=O)cc(OC)c1OC | 258.9 to 260.7 °C
53 | COc1cc(/C=C2\NC(=O)NC2=O)cc(OC)c1O [Compound 151, (Z)-5-(4-hydroxy-3,5-dimethoxybenzylidene)imidazolidine-2,4-dione] | 266 to 268.5 °C
54 | COc1ccc(/C=C2\NC(=S)NC2=O)cc1OC [Compound 105, (Z)-5-(3,4-dimethoxybenzylidene)-2-thioxoimidazolidin-4-one] | 236.2 to 238 °C
